# Test results: patent US9879004B2, “Substituted acetylene derivatives and their use as positive allosteric modulators of mGluR4” (Merck Patent GmbH, priority 2013, dated 2018)
# pEC50: −log10 of the molar value.
# Molecular target: T1, mGluR4 (HEK293T-hmGluR4 cells) (Homo sapiens, UniProt Q14833)
# T1 construct: host or cells: HEK293T
# Assay: HEK-293 mGluR4 cells cAMP assay with EC20 L-Glutamate (HTRF)
# Type: cell-based
# Settings: positive allosteric activity at EC20 L-Glutamate, 10 μM Forskolin, cAMP HTRF readout, read-out: hrmGluR4/HEK293T-hmGluR4 (EC50)
# Procedure: HEK-293 mGluR4 cells cAMP assay with EC20 L-Glutamate
# Using mGluR4 suspension cell format, 10 μM Forskolin (final conc.) used to induce the production of cAMP.
# Test the positive allosteric activity of the compounds of the invention at EC20 (2.3 μM for mGluR4 and 4.3 μM for mGluR6) L-Glutamate,
# cAMP dymanic2 kit is intended for the direct quantitative determination of cAMP and its principle is based on HTRF technology.
# Cells: HEK293T mGluR4 cells from Multispan, cat# C1191a lot# C1191a-040910 Culture Media: DMEM+GlutaMAX1+10% dialyzed FBS, 100 mM Sodium Pyruvate, 1 ug/ml puromycin.
# Glutamine Starvation Media: DMEM without GlutaMax for plating the cells (glutamine starvation overnight). DMEM high Glucose, without phenol red, glutamine, or sodium pyruvate+10% dialyzed FBS, 100 mM Sodium Pyruvate, 1 ug/ml puromycin, 10 mM Hepes.
# Cell Preparation: split cells at 80%-90% confluence. The following day, rinse the cells with DMEM without GlutaMax and change to Glutamine Starvation Media. Incubate overnight.
# Prepare compound plate: Perform compound serial dilution (uses Matrix 4341 plate), using the Bravo liquid handling platform protocol (compound serial dilution) which adds DMSO to columns 1-24 (except cols. 3 and 13). Serial dilute compounds located in columns 3 and 13 at a 1:3 ratio; 10 points (10 ul of 3 mM compound into 20 ul DMSO). Use the Bravo liquid handling platform to transfer 1 ul from the serial dilution plate into Matrix 4314 plate to create stamp plates.
# Dilute 20 mM Forskolin (in DMSO) stock solution in HBSS buffer to make a 20 uM solution (forskolin buffer; 2× solution). To the forskolin buffer, add glutamate to a concentration of 8 uM (compound dilution buffer; 2×EC20 glutamate and forskolin).
# Using a multidrop, add 50 ul/well of compound dilution buffer to columns 1-22 of the 2 ul compound stamp plate. Columns 23 and 24 receive forskolin buffer containing 400 uM glutamate (EC100 glutamate; 2× solution). Columns 1 and 2 receive compound dilution buffer containing EC20 glutamate, which is the basal control. Add a glutamate dose response to row P of compound plate. Prepare the dose response by serial diluting glutamate at a 1:3 ratio in forskolin buffer starting at 2 mM glutamate (2×). Dilute the glutamate 9 times and transfer to compound plate.
# Harvest cells: Rinse cells with pre-warmed HBSS-10 mM HEPES (without Ca Mg) and dissociate the cells from the flask with versene. Centrifuge the cells, remove the supernatant and suspend in pre-warmed HBSS+10 mM Hepes. Count the cells and centrifuge. Remove the supernatant and suspend the cells in HBSS+Hepes (with Ca Mg) at a density of 400,000 cells/ml.
# Dispense 5 ul from the diluted compound plate into Greiner low volume cell plate using the Bravo liquid handling platform. Using a Multidrop with the small tubing cassette, dispense 5 ul of cells (2000 cells/well) onto the compounds contained in the low volume plates. Incubate the cells at 37° C., 5% CO2 for 30 minutes in the incubator.
# Prepare cAMP-d2 and anti-cAMP-Crytate according to the instructions for the two step assay (see Cisbio manual) and add 10 ul of the mixed reagent to each well of the assay plate using the Multidrop. Incubate at room temperature for 60 minutes and read on the Envision plate reader using the mGluR low volume cAMP HTRF 384 well protocol. The readout is the calculated fluorescence ratio ([…]*10000).
# T1 sequence (Q14833 33-912): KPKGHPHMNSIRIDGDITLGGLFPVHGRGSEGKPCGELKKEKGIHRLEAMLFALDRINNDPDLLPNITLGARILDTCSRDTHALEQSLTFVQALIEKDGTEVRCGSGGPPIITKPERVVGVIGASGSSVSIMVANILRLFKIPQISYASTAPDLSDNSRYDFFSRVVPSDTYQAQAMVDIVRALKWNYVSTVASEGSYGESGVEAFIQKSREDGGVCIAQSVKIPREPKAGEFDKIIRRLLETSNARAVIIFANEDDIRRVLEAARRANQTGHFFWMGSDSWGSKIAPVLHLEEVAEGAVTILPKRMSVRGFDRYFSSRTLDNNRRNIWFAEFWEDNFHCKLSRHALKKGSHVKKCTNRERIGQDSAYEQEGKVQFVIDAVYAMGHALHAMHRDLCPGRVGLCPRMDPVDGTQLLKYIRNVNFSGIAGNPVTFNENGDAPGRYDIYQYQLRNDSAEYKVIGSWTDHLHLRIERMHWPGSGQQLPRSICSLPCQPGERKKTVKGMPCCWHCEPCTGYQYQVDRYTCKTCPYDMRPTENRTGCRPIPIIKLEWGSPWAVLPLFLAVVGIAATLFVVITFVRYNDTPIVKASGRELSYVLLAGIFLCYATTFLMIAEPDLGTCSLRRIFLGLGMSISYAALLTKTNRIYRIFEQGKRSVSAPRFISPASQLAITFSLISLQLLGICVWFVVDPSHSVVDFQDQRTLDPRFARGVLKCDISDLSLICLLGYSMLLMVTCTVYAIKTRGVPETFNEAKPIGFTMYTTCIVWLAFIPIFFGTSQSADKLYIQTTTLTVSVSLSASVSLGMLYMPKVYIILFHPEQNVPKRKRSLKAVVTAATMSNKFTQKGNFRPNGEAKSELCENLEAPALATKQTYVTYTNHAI
row,SMILES,pEC50
1,"C(#Cc1ccnc2ccccc12)c1ccccc1 [Compound 1, 4-Phenylethynyl-quinoline]",> 6.00
2,"Fc1cccc(C#Cc2ccnc3ccccc23)c1 [Compound 2, 4-(3-Fluoro-phenylethynyl)-quinoline]",> 6.00
3,"C(#Cc1ccnc2ccccc12)c1ccsc1 [Compound 3, 4-Thiophen-3-ylethynyl-quinoline]",> 6.00
4,"Clc1cccc(C#Cc2ccnc3ccccc23)c1 [Compound 9, 4-(3-Chloro-phenylethynyl)-quinoline]",5.00 to 6.00
5,"C(#Cc1ccnc2ccccc12)c1cccs1 [Compound 6, 4-Thiophen-2-ylethynyl-quinoline]",5.00 to 6.00

# The remaining lines, values ahead:
row,pEC50,SMILES
1,> 6.00,"Fc1ccc(C#Cc2ccnc3ccccc23)cc1 [Compound 4, 4-(4-Fluoro-phenylethynyl)-quinoline]"
2,> 6.00,"Fc1ccc(C#Cc2ccnc3ccccc23)cc1F [Compound 5, 4-(3,4-Difluoro-phenylethynyl)-quinoline]"
3,5.00 to 6.00,"Fc1ccccc1C#Cc1ccnc2[nH]ccc12 [Compound 8, 4-(2-Fluoro-phenylethynyl)-1H-pyrrolo[2,3-b]pyridine]"
4,5.00 to 6.00,"Fc1ccccc1C#Cc1ccnc2ccccc12 [Compound 7, 4-(2-Fluoro-phenylethynyl)-quinoline]"
